Results reported in US20230124862A1, “BISMUTH THIOL COMPOUNDS AND COMPOSITIONS AND METHODS OF TREATING MICROBIAL CO-INFECTIONS” (Microbion Corporation, priority 2020, published 2023).
In brackets after ≈: the same amount, converted by molar mass. Like-named read-outs stand apart in the source and are kept apart here.

Assays:
[1] = tested on: P. aeruginosa; test: Broth microdilution MIC (Example 10); type: cell-based, Pseudomonas aeruginosa; settings: initial MIC testing
[2] = tested on: P. aeruginosa; test: Checkerboard FIC/FICI assay; type: cell-based, Pseudomonas aeruginosa; settings: during FIC testing
[3] = tested on: P. aeruginosa; settings: P. aeruginosa isolate 103; CLSI QC range in parenthesis; cited from earlier work
[4] = tested on: P. aeruginosa; settings: P. aeruginosa isolate 103; CLSI QC range in parenthesis; cited from earlier work; remark: listed apart in the source
[5] = tested on: Burkholderia cepacia complex; type: cell-based, Burkholderia spp.; settings: initial MIC testing
[6] = tested on: Burkholderia cepacia complex; test: Checkerboard FIC/FICI assay; type: cell-based, Burkholderia spp.; settings: during FIC testing
[7] = tested on: Pseudomonas aeruginosa; test: Broth microdilution MIC (Example 12); type: cell-based
[8] = tested on: P. aeruginosa and A. baumannii; settings: P. aeruginosa (MMX 103), QC; cited from earlier work
[9] = tested on: Gram-positive aerobic bacteria (S. aureus, MRSA, CA-MRSA); test: MIC90 against 150 clinical isolates of Gram-positive aerobic bacteria; type: cell-based; settings: S. aureus (50 isolates)
[10] = tested on: Enterobacteriaceae; test: Broth microdilution MIC (Example 11); type: cell-based, E. coli, K. pneumoniae, Enterobacter cloacae
[11] = tested on: Klebsiella pneumoniae; test: Broth microdilution MIC (Example 12); type: cell-based
[12] = tested on: Enterobacteriaceae; settings: E. coli (MMX 102), QC; cited from earlier work
[13] = tested on: Pseudomonas aeruginosa; settings: P. aeruginosa ATCC 27853; CLSI established QC range; cited from earlier work
[14] = tested on: Acinetobacter baumannii; test: Broth microdilution MIC (Example 12); type: cell-based
[15] = tested on: Escherichia coli; settings: E. coli ATCC 25922; CLSI established QC range; cited from earlier work
[16] = tested on: Escherichia coli; test: Broth microdilution MIC (Example 12); type: cell-based

NC[C@H]1O[C@H](O[C@H]2[C@H](O)[C@@H](O[C@H]3O[C@H](CO)[C@@H](O)[C@H](N)[C@H]3O)[C@H](N)C[C@@H]2N)[C@H](N)C[C@@H]1O [TOB]
MIC ([1]; P. aeruginosa isolate 103, QC strain): 1 µg/mL (≈ 2.14 µM)
MIC ([1]; P. aeruginosa isolate 1497 (TOB-R AMK-R, CIP-I, AZT-R, COL-R)): 16 µg/mL (≈ 34.2 µM)
MIC ([1]; P. aeruginosa isolate 1530 (TOB-R, AMK-R, CIP-R)): 32 µg/mL (≈ 68.4 µM)
MIC ([1]; P. aeruginosa isolate 1553 (TOB-R, AMK-R, CIP-R)): >256 µg/mL
MIC ([1]; P. aeruginosa isolate 6322 (MEM-R, TOB-R, AMK-R, CIP-R, AZT-R)): 128 µg/mL (≈ 274 µM)
MIC ([1]; P. aeruginosa isolate 6977 (MEM-I, TOB-R, CIP-R, AZT-I)): 128 µg/mL (≈ 274 µM)
MIC ([1]; P. aeruginosa isolate 7745 (MEM-R, CIP-R, AZT-R)): 0.5 µg/mL (≈ 1.07 µM)
MIC ([1]; P. aeruginosa isolate 7754 (MEM-R, TOB-R, CIP-R, AZT-I)): 32 µg/mL (≈ 68.4 µM)
MIC ([1]; P. aeruginosa isolate 7762 (MEM-I, CIP-I)): 1 µg/mL (≈ 2.14 µM)
MIC ([1]; P. aeruginosa isolate 7871 (MEM-R, AZT-I)): 0.5 µg/mL (≈ 1.07 µM)
MIC ([1]; P. aeruginosa isolate 7874): 0.5 µg/mL (≈ 1.07 µM)
MIC ([1]; P. aeruginosa isolate 7886 (MEM-R, CIP-R, AZT-R)): 1 µg/mL (≈ 2.14 µM)
MIC ([1]; P. aeruginosa isolate 8797 (MEM-R, TOB-R, AMK-R, CIP-R, AZT-R, COL-R)): >256 µg/mL
MIC ([1]; P. aeruginosa isolate 8798 (MEM-R, TOB-R, AMK-R, CIP-R, AZT-R, COL-R)): 32 µg/mL (≈ 68.4 µM)
MIC ([1]; P. aeruginosa isolate 9108 (CIP-R, AZT-I)): 0.5 µg/mL (≈ 1.07 µM)
MIC ([2]; isolate 103 (ATCC 25922), each agent tested alone for QC, one replicate): 1 µg/mL
MIC ([2]; isolate 6322): 128 µg/mL
MIC ([2]; isolate 6977): 128 µg/mL
MIC ([2]; isolate 7745): 0.5 µg/mL
MIC ([2]; isolate 8798): 16 µg/mL
MIC ([2]; isolate 9108): 0.5 µg/mL
CLSI QC range of MIC [3]: (0.25-1) μg/mL
CLSI QC range of MIC [4]: (0.25-1) μg/mL
MIC ([5]; B. cenocepacia isolate 0548 (CIP-R)): 64 µg/mL (≈ 137 µM)
MIC ([5]; B. cenocepacia isolate 0813 (CPI-I)): 256 µg/mL (≈ 548 µM)
MIC ([5]; B. cepacia isolate 0546): 64 µg/mL (≈ 137 µM)
MIC ([5]; B. cepacia isolate 1793): 64 µg/mL (≈ 137 µM)
MIC ([5]; B. cepacia isolate 1794): 64 µg/mL (≈ 137 µM)
MIC ([5]; B. cepacia isolate 9040): 8 µg/mL (≈ 17.1 µM)
MIC ([5]; B. multivorans isolate 1791): 64 µg/mL (≈ 137 µM)
MIC ([5]; B. multivorans isolate 5665 (CIP-I)): 64 µg/mL (≈ 137 µM)
MIC ([5]; B. multivorans isolate 8952 (CIP-I)): 16 µg/mL (≈ 34.2 µM)
MIC ([6]; B. cenocepacia isolate 0548): 32 µg/mL
MIC ([6]; B. cenocepacia isolate 0813): 256 µg/mL
MIC ([6]; B. cepacia isolate 0546): 32 µg/mL
MIC ([6]; B. cepacia isolate 1793): 16 µg/mL

CC(C)(O/N=C(\C(=O)N[C@@H]1C(=O)N2C(C(=O)[O-])=C(C[n+]3ccccc3)CS[C@H]12)c1csc(N)n1)C(=O)O [CAZ]
MIC ([7]; P. aeruginosa ATCC 27853, ATCC QC organism (Table 102)): 2 µg/mL (≈ 3.66 µM)
MIC ([7]; P. aeruginosa CDC 230, VIM/OXA): 64 µg/mL (≈ 117 µM)
MIC ([7]; P. aeruginosa CDC 231, KPC/OXA): >64 µg/mL
MIC ([7]; P. aeruginosa CDC 241, IMP/OXA): >64 µg/mL
MIC ([7]; P. aeruginosa CDC 246, NDM/OXA): >64 µg/mL
MIC ([7]; P. aeruginosa CDC 250, NDM/OXA): >64 µg/mL
MIC ([7]; P. aeruginosa CDC 356, KPC): 64 µg/mL (≈ 117 µM)
MIC ([7]; P. aeruginosa CDC 439, IMP): >64 µg/mL
MIC ([7]; P. aeruginosa CDC 444, VIM): 32 µg/mL (≈ 58.5 µM)
MIC ([7]; P. aeruginosa CDC 457, VIM): >64 µg/mL
MIC ([7]; P. aeruginosa CDC 516, KPC/AmpC): 64 µg/mL (≈ 117 µM)
MIC ([7]; P. aeruginosa CDC 518, KPC/AmpC): 32 µg/mL (≈ 58.5 µM)
CLSI Quality Control Range (MIC) [8]: (1.4)
MIC90 ([9]; CA-MRSA): >64 µg/mL
MIC90 ([9]; MRSA): >64 µg/mL
MIC90 ([9]; MSSA): 16 µg/mL (≈ 29.3 µM)
MIC ([10]; E. cloacae (MMX 5981), NDM-1, LVX-R, MEM-R, CAZ-R, GEN-R): >32 µg/mL
MIC ([10]; E. coli (MMX 102), QC): 0.12 µg/mL (≈ 0.22 µM)
MIC ([10]; E. coli (MMX 5980), NDM-1, LVX-R, MEM-R, CAZ-R, GEN-R): >32 µg/mL
MIC ([10]; E. coli (MMX 8423), ESBL, LVX-R, CAZ-R, GEN-R): 32 µg/mL (≈ 58.5 µM)
MIC ([10]; E. coli (MMX 8424), ESBL, CAZ-R): 16 µg/mL (≈ 29.3 µM)
MIC ([10]; E. coli (MMX 8425), ESBL, LVX-R, CAZ-R, GEN-R): 16 µg/mL (≈ 29.3 µM)
MIC ([10]; K. pneumoniae (MMX 4622), KPC-2, MEM-R, CAZ-R): >32 µg/mL
MIC ([10]; K. pneumoniae (MMX 4623), KPC-2, MEM-R, CAZ-R, GEN-R): >32 µg/mL
MIC ([10]; K. pneumoniae (MMX 4653), KPC-3, LVX-R, MEM-R, CAZ-R): >32 µg/mL
MIC ([10]; K. pneumoniae (MMX 4683), KPC-2, LVX-R, MEM-R, CAZ-R): >32 µg/mL
MIC ([10]; K. pneumoniae (MMX 4684), ESBL, MEM-R): 8 µg/mL (≈ 14.6 µM)
MIC ([10]; K. pneumoniae (MMX 4685), ESBL, LVX-R, MEM-R, CAZ-R): >32 µg/mL
MIC ([10]; K. pneumoniae (MMX 4694), KPC-3, LVX-R, MEM-R, CAZ-R): >32 µg/mL
MIC ([10]; K. pneumoniae (MMX 5979), NDM-1, LVX-R, MEM-R, CAZ-R, GEN-R): >32 µg/mL
MIC ([11]; K. pneumoniae ATCC BAA-1705, ATCC QC organism (Table 102)): >64 µg/mL
MIC ([11]; K. pneumoniae ATCC BAA-1705, ESBL/KPC): >64 µg/mL
MIC ([11]; K. pneumoniae CDC 112, KPC): >64 µg/mL
MIC ([11]; K. pneumoniae CDC 113, ESBL/KPC): >64 µg/mL
MIC ([11]; K. pneumoniae CDC 115, ESBL/KPC): >64 µg/mL
MIC ([11]; K. pneumoniae CDC 120, ESBL/KPC): >64 µg/mL
MIC ([11]; K. pneumoniae CDC 126, ESBL/KPC): 4 µg/mL (≈ 7.32 µM)
MIC ([11]; K. pneumoniae CDC 129, ESBL/KPC): >64 µg/mL
MIC ([11]; K. pneumoniae CDC 135, ESBL/VIM): >64 µg/mL
MIC ([11]; K. pneumoniae CDC 138, ESBL/NDM): >64 µg/mL
MIC ([11]; K. pneumoniae CDC 158, ESBL/NDM/OXA): >64 µg/mL
MIC ([11]; K. pneumoniae MMX 9029, ESBL): 4 µg/mL (≈ 7.32 µM)
CLSI Quality Control Range (MIC) [12]: (0.06-0.5) μg/mL
QC range of MIC [13]: (1-4) μg/mL
MIC ([14]; A. baumannii CDC 273, ESBL/OXA): 64 µg/mL (≈ 117 µM)
MIC ([14]; A. baumannii CDC 274, ESBL/OXA): >64 µg/mL
MIC ([14]; A. baumannii CDC 275, ESBL/OXA): >64 µg/mL
MIC ([14]; A. baumannii CDC 277, ESBL/OXA): >64 µg/mL
MIC ([14]; A. baumannii CDC 284, ESBL/OXA): 64 µg/mL (≈ 117 µM)
MIC ([14]; A. baumannii CDC 307, OXA): 64 µg/mL (≈ 117 µM)
MIC ([14]; A. baumannii CDC 308, ESBL/OXA): 64 µg/mL (≈ 117 µM)
MIC ([14]; A. baumannii CDC 311, OXA): >64 µg/mL
MIC ([14]; A. baumannii CDC 312, OXA): >64 µg/mL
MIC ([14]; A. baumannii CDC 313, ESBL/OXA): >64 µg/mL
MIC ([14]; A. baumannii NCTC 13304, OXA): >64 µg/mL
QC range of MIC [15]: (0.06-0.5) μg/mL
MIC ([16]; E. coli ATCC 25922, ATCC QC organism (Table 102)): 0.25 µg/mL (≈ 0.457 µM)
MIC ([16]; E. coli ATCC 35218, ATCC QC organism (Table 102)): 0.12 µg/mL (≈ 0.22 µM)
MIC ([16]; E. coli ATCC 35218, ESBL): 0.12 µg/mL (≈ 0.22 µM)
MIC ([16]; E. coli ATCC BAA-2471, NDM): >64 µg/mL
MIC ([16]; E. coli CDC 114, ESBL/KPC): >64 µg/mL
MIC ([16]; E. coli CDC 118, ESBL/NDM): >64 µg/mL
MIC ([16]; E. coli CDC 435, NDM): >64 µg/mL
MIC ([16]; E. coli CDC 451, KPC): 64 µg/mL (≈ 117 µM)
MIC ([16]; E. coli CDC 503, ESBL/NDM): >64 µg/mL
MIC ([16]; E. coli MMX 5745, KPC): 32 µg/mL (≈ 58.5 µM)
MIC ([16]; E. coli MMX 5755, ESBL): >64 µg/mL
MIC ([16]; E. coli MMX 5756, ESBL): >64 µg/mL
MIC ([16]; E. coli MMX 5758, ESBL): 16 µg/mL (≈ 29.3 µM)
